Source: ChEMBL document CHEMBL1201862, “PubChem BioAssay data set” (2004)
Activity calls are given as the source filed them.

Tests used:
Leucine aminopeptidase = target: T1, Leucine aminopeptidase (Plasmodium falciparum 3D7, UniProt Q8IL11); assay: P. falciparum M17LAP inhibitors, primary screen, biochemical, fluorogenic H-Leu-NHMec substrate, 1536-well (AID 1619); type: functional
T1 sequence (Q8IL11 whole entry): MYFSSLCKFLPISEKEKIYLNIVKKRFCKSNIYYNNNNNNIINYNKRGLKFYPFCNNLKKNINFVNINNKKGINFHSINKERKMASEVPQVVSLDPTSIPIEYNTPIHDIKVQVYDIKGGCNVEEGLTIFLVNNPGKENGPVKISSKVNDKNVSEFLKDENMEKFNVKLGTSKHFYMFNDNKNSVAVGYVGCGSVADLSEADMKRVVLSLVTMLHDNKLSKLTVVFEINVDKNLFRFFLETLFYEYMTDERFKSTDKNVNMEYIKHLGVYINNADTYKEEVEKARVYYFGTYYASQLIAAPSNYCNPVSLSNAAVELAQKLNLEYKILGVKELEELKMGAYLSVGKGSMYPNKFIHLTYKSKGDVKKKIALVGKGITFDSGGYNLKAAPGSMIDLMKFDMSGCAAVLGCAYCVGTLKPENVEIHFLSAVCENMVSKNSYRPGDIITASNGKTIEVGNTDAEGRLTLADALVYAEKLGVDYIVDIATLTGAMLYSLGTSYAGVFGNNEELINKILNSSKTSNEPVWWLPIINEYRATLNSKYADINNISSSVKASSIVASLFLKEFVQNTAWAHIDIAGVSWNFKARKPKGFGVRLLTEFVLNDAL

Large T antigen = Large T antigen (Simian virus 40, UniProt P03070); type: functional, Betapolyomavirus macacae;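 also: Confirmatory-stage PubChem screen for compounds that inhibit SV40 T antigen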
[1] = target: T2, Polyadenylate-binding protein 1 (Homo sapiens, UniProt P11940); assay: MLLE domain peptide-binding blockers, IC50 – biochemical, fluorescence polarization, FITC-PAM2 peptide, dose response (AID 602259); type: functional; details: read-out: IC50_Mean
[2] = target: T2, Polyadenylate-binding protein 1; assay: MLLE binding blockers, Cy5 peptide tracer – biochemical, fluorescence polarization, Cy5-PAM2 peptide, secondary, miRNA deadenylation inhibitor project, dose response (AID 602260); type: functional; details: read-out: IC50_Mean
[3] = Luminescence Cell-Based Dose Confirmation HTS to Identify Activators of 5'UTR Stem-Loop Driven Alpha-Synuclein mRNA Translation in H4 Neuroglioblastoma Cells. [Related pubchem assays: 1829 (Project Summary), 1814 (Primary HTS)]; type: functional
H4 = assay: Luminescence Cell-Based Dose Response HTS to Identify Activators of 5'UTR Stem-Loop Driven Prion Protein mRNA Translation in H4 Neuroglioblastoma Cells. [Related pubchem assays: 1829 (Project Summary), 1814 (Primary HTS)]; type: functional; details: Homo sapiens
[4] = Luminescence Cell-Based Dose Response HTS to Identify Activators of Luciferase Translation or Activity in H4 […] Cells. [Related pubchem assays: 1829 (Project Summary), 1814 (Primary HTS)]; type: functional
[5] = target: Induced myeloid leukemia cell differentiation protein Mcl-1 (Homo sapiens, UniProt Q07820); type: functional
[6] = target: Glyceraldehyde-3-phosphate dehydrogenase (Homo sapiens, UniProt P04406)
[7] = viability of HCT116 lacking mutant beta-catenin – cell-based, human colon tumor, dose response (AID 1045); type: functional;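 also: HCT116 colon tumor cells with beta catenin knocked out; cells exposed to compound for 60 hours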
[8] = target: T3, Zinc finger protein mex-5 (Caenorhabditis elegans, UniProt Q9XUB2); assay: potency of MEX-5 RNA-binding blockers – biochemical, C. elegans, fluorescence polarization, dose response (AID 1960)
T3 sequence (Q9XUB2 whole entry): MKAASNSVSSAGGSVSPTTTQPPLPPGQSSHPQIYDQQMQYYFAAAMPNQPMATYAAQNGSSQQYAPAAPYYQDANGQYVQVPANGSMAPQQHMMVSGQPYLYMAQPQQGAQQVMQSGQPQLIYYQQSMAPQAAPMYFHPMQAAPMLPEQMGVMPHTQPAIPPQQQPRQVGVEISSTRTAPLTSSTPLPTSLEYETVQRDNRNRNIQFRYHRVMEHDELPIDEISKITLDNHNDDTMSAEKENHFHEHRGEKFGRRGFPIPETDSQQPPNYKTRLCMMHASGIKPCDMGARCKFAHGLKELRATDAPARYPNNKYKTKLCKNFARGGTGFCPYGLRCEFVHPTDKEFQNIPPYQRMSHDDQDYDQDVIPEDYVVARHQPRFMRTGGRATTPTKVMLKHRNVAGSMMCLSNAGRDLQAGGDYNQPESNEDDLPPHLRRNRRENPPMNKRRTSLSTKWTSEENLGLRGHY

Cytochrome P450 2C19 = Cytochrome P450 2C19 (Homo sapiens, UniProt P33261); assay: Cytochrome panel assay with activity outcomes. Panel member name: p450-cyp2c19 Compounds with AC50 equal or less than 10 uM are considered active; type: functional; details: read-out: AC50
[9] = target: T4, RNA-binding protein pos-1 (Caenorhabditis elegans, UniProt G5EF15); assay: disruptors of C. elegans POS-1 RNA interaction – biochemical, fluorescence polarization, dose response (AID 1964);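 also: purified POS-1 fused to maltose binding protein made in E. coli; potency of compounds blocking POS-1 binding to fluorescent RNA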
T4 sequence (G5EF15 whole entry): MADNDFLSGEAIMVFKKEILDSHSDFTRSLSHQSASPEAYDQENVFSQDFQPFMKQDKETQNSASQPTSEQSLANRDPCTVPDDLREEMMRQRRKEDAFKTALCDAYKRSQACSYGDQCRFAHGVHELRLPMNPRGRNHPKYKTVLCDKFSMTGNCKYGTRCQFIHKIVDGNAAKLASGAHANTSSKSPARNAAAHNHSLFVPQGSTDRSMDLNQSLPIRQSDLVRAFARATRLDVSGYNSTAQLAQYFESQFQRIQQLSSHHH

[10] = target: T5, Replicative DNA helicase DnaB (Mycobacterium tuberculosis, UniProt P9WMR3); assay: DnaB intein splicing inhibitors, dose response, biochemical, cell-free fluorescence (AID 449749); type: functional
T5 sequence (P9WMR3 whole entry): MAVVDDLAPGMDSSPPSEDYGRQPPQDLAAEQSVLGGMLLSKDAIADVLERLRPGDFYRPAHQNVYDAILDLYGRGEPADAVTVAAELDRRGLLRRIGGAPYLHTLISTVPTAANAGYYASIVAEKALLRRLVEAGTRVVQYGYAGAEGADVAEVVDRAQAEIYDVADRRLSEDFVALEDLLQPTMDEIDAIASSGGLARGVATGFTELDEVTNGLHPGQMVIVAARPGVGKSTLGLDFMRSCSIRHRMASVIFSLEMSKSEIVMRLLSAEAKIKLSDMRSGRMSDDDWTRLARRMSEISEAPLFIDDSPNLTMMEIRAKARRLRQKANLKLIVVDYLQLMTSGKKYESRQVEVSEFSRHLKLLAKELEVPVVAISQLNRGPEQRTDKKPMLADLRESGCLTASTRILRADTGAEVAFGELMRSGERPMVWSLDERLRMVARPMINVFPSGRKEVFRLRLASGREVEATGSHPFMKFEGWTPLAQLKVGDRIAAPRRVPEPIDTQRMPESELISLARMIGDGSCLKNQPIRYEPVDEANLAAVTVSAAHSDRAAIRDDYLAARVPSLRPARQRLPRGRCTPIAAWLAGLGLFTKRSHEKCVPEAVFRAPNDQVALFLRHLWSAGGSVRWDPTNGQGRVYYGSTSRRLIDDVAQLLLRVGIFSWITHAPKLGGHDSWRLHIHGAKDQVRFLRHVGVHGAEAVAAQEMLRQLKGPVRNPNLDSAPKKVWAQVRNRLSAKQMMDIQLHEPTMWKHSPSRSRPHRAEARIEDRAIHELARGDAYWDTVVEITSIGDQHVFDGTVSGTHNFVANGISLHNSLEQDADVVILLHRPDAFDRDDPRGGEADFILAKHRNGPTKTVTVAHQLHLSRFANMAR

Protein RecA = target: T6, Protein RecA (Mycobacterium tuberculosis, UniProt P9WHJ3); assay: Fluorescence Cell-Free Homogeneous Dose Retest to Identify Inhibitors of RecA-Intein Splicing Activity. [Related pubchem assays (depositor defined):AID2097, AID2223, AID489010, AID492950]; type: functional
T6 sequence (P9WHJ3 whole entry): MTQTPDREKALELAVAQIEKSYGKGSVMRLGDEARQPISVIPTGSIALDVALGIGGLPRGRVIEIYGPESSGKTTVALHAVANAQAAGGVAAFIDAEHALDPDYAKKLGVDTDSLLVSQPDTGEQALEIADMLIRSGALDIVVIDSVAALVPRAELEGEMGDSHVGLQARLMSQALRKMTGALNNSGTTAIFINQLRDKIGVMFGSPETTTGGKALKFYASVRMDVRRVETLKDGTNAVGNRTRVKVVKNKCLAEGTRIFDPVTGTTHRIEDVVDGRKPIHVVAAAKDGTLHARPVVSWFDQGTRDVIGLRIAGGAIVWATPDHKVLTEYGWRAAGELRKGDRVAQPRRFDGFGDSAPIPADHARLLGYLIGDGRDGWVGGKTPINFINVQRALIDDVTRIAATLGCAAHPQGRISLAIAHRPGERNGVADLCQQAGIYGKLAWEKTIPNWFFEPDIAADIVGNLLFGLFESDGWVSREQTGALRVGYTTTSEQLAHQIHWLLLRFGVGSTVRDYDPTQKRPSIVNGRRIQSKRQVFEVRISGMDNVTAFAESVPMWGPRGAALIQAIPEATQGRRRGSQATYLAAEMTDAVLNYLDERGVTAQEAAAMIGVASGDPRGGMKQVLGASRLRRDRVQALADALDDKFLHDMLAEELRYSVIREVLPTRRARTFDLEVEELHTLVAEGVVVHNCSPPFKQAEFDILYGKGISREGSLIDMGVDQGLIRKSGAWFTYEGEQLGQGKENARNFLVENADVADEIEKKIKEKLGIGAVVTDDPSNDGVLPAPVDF

Sequence of Large T antigen (P03070 whole entry, the tested form may be a part): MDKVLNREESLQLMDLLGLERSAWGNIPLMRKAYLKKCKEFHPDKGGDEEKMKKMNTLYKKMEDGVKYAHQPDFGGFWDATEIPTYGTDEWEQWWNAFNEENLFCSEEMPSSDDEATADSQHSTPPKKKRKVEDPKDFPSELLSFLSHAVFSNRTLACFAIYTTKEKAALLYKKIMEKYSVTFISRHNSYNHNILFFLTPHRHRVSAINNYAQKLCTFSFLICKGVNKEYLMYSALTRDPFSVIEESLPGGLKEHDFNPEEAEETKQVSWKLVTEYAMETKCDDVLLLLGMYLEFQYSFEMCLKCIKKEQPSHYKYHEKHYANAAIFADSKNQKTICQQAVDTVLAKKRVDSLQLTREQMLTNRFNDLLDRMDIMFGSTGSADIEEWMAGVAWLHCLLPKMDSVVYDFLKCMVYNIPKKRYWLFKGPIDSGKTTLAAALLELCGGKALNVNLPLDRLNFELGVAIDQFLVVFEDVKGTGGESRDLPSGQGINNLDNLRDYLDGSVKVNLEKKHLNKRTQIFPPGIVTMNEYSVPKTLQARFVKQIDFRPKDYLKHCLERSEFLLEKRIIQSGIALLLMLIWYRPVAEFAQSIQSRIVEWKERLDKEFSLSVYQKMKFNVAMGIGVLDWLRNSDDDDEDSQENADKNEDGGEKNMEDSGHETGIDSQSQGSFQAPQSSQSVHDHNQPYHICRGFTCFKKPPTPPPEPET
Sequence of Glyceraldehyde-3-phosphate dehydrogenase (P04406 whole entry): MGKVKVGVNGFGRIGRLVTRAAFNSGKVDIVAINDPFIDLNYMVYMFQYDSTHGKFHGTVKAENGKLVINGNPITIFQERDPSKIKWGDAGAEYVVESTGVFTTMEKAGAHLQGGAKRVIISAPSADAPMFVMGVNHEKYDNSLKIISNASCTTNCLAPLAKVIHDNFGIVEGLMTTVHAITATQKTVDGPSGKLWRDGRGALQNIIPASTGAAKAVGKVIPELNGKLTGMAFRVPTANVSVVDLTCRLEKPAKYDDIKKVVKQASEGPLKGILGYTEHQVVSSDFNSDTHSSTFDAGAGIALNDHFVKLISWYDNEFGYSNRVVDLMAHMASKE
T2 sequence (P11940 whole entry, the tested form may be a part): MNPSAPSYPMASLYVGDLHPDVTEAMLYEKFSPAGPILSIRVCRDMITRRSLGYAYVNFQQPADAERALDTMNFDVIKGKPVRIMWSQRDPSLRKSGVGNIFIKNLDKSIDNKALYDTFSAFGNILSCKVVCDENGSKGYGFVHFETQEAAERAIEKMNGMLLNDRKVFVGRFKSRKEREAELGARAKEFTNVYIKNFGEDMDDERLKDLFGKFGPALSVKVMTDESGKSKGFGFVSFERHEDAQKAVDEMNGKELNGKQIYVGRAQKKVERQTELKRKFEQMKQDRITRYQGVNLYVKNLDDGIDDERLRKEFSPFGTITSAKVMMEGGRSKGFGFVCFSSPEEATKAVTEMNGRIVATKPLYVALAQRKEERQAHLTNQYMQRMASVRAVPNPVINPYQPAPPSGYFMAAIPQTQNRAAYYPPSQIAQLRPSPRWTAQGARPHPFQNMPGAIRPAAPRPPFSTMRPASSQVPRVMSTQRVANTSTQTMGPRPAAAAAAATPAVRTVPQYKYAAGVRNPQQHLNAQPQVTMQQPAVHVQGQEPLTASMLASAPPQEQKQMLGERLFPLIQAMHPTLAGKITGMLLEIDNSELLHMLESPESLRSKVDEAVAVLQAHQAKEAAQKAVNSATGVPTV
Sequence of Cytochrome P450 2C19 (P33261 whole entry, the tested form may be a part): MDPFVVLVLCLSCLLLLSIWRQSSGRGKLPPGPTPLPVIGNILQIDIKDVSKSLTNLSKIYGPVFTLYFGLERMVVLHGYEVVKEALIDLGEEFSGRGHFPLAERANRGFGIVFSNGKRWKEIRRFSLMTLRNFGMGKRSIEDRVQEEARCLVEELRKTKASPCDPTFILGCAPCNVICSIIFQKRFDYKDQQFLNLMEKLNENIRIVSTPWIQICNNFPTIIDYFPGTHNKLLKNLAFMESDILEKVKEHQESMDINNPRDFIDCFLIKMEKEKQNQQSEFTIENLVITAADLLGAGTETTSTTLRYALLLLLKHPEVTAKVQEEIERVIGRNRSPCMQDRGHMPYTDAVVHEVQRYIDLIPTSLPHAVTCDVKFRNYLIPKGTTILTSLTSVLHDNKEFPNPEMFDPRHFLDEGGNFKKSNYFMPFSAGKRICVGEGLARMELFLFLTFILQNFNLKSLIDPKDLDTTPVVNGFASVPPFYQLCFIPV
Sequence of Induced myeloid leukemia cell differentiation protein Mcl-1 (Q07820 whole entry): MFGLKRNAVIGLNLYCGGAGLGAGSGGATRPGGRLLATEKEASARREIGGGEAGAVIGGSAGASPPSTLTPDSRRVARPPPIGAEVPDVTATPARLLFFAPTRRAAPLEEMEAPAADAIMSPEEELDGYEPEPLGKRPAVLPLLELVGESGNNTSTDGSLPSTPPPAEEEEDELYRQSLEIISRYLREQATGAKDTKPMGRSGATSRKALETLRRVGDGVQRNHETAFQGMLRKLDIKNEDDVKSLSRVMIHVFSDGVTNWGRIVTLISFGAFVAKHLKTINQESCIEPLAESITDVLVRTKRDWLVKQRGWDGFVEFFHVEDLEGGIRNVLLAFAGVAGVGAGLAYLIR

SMILES: Cc1ccc(NC(=O)Cn2nc(C)c3ccccc3c2=O)cc1F
- IC50 (Leucine aminopeptidase): 14 µM (active)

SMILES: N#CC1=C2SCN(Cc3ccco3)CN2C(=O)CC1c1ccc(Cl)cc1 (stereo not given)
- IC50 (Large T antigen): > 100 µM (active)

SMILES: O=C(CSC1=NCCS1)Nc1nc2ccccc2s1
- IC50 [1]: > 66 µM (inactive)
- IC50 [2]: > 66 µM (inactive)
- EC50 [3]: 15 µM (active)
- EC50 (H4): 9.16 µM (active)
- EC50 [4]: 12.5 µM (active)

SMILES: Cc1nc(N)sc1-c1csc(Nc2ncccn2)n1
- IC50 [5]: 3.69 µM (active)

SMILES: NC(=NOC(=O)CSc1ccccc1)c1ccc([N+](=O)[O-])cc1
- IC50 [1]: > 66 µM (inactive)
- IC50 [2]: > 66 µM (inactive)
- EC50 [3]: 11.5 µM (active)
- EC50 (H4): > 120 µM (not active)
- EC50 [4]: 9.44 µM (active)

SMILES: O=C(O)/C=C/C(=O)Nc1ccc2c(c1)C(=O)c1ccccc1C2=O
- IC50 [6]: > 100 µM (not active)

SMILES: Cc1ccc(Nc2cnn(C34CC5CC(CC(CC(=O)O)(C5)C3)C4)c(=O)c2Cl)c(Cl)c1
- IC50 (Leucine aminopeptidase): 24.4 µM (active)

SMILES: Cc1cc(NC(=O)CN2CCN(c3ccc(O)cc3)CC2)no1
- EC50 [7]: 31.9 µM (active)
- IC50 (Large T antigen): 9.24 µM (active)

SMILES: COc1ccc(N2CCN(C3=C(Cl)C(=O)N(c4ccc(C(F)(F)F)cc4)C3=O)CC2)cc1
- IC50 [6]: > 12.5 µM (inconclusive)

SMILES: CC(C)Sc1nc(-c2ccccc2)cc(=O)[nH]1
- IC50 (Leucine aminopeptidase): 28.3 µM (active)

SMILES: Cc1ccc(C)c(NC(=O)CSc2ncnc3nc[nH]c23)c1
- IC50 (Leucine aminopeptidase): 50.8 µM (active)

SMILES: COc1ccc(C2C(C#N)=C(N)OC3=C2C(=O)CC(C)(C)C3)c([N+](=O)[O-])c1OC (stereo not given)
- EC50 [8]: > 300 µM (not active)
- IC50 [1]: > 66 µM (inactive)
- IC50 [2]: > 66 µM (inactive)
- AC50 (Cytochrome P450 2C19): 14.1 µM (inconclusive)
- EC50 [9]: > 300 µM (not active)

SMILES: CCCc1n[nH]c2c1C(CCc1ccccc1)C(C#N)=C(N)O2 (stereo not given)
- AC50 [10]: 6.33 µM (active)
- IC50 (Leucine aminopeptidase): 55.7 µM (active)
- EC50 (Protein RecA): 7.93 µM (active)

SMILES: COc1cccc(C(=O)Nc2ccc3c(c2)n(C)c(=O)n3C)c1
- IC50 (Large T antigen): > 100 µM (active)

SMILES: Cc1ccc(C(=O)C2CCN(CC(=O)Nc3ccc(N(C)C)cc3)CC2)cc1
- IC50 (Large T antigen): 14.5 µM (active)

SMILES: O=C(NCc1ccco1)C(=O)c1cn(CC(=O)N2CCCC2)c2ccccc12
- IC50 (Leucine aminopeptidase): 73.3 µM (active)

SMILES: COc1cc(NS(=O)(=O)c2ccc(NC(=O)CSC3=NCCS3)cc2)nc(OC)n1
- IC50 (Leucine aminopeptidase): 2.12 µM (active)

SMILES: COc1ccc(N2CCN(C3=C(Cl)C(=O)N(c4ccnc(Cl)c4)C3=O)CC2)cc1
- IC50 [6]: > 50 µM (inconclusive)

SMILES: NC(=O)N/N=C/c1c(Sc2nnnn2-c2ccccc2)nc2ccccn2c1=O
- IC50 (Large T antigen): 60.5 µM (active)

SMILES: O=C(O)c1cccc(Cn2c(Cl)c(/C=N/NC(=O)c3ccccc3)sc2=O)c1
- IC50 (Leucine aminopeptidase): 20.8 µM (active)

SMILES: CCc1c(O)nc(SCC(=O)Nc2ccccc2)n(C(C)CC)c1=O (stereo not given)
- IC50 [1]: > 66 µM (inactive)
- IC50 [2]: > 66 µM (inactive)
- IC50 (Leucine aminopeptidase): 17.8 µM (active)

SMILES: O=C(O)CN1C(=O)S/C(=C\c2ccc(O)cc2)C1=O
- IC50 [6]: > 100 µM (not active)

SMILES: O=C1c2c(O)cc(O)cc2O[C@H](c2ccc(O)c(O)c2)[C@H]1O [(+)-TAXIFOLIN]
- IC50 (Large T antigen): 32 µM (active)
